Here are results for three compounds from patent US4540682A, “Pharmaceutical peptides, preparation, use and intermediates” (Burroughs Wellcome Co., priority 1983, dated 1985).

Each structure is given as a SMILES string.

One experiment concerns Male mice (CFLP strain). The experiment can be described thus: Hotplate test. In kind it is in vivo. The note with it: subcutaneous; test repeated 15 mins. after treatment; as free peptide where appropriate; NE = no effect. The source says:
(§1) (1) Both the hotplate test (Woolfe and MacDonald, J. Pharmacol. Exp. Ther. 80: 300, 1944) and the irritant-induced writhing (stretch) test (Vander Wende and Margolin, Fed. Proc. 15: 494, 1956) are standard in the art for the investigation of analgesic activity. Whereas it is believed that the pain in the latter can be ameliorated either centrally or peripherally, it is thought that that induced in the hotplate test is affected only at the central level.
Male mice (CFLP strain, Hacking and Churchill) were individually placed in a copper-bottomed perspex box suspended in a water bath at 55° C. and observed for signs of discomfort such as shaking or licking the paws, the reaction time (up to a maximum of 30 secs.) being recorded. Groups of five animals then received either a test compound or saline vehicle (0.85%) control by subcutaneous injection, the test being repeated at 15 mins. after treatment. The ED50 figures for the test compounds were calculated from the number of animals having a posttreatment reaction time which was twice the pretreatment figure.

Another experiment concerns female CD1 mice. The experiment can be described thus: Irritant-induced writhing test, phenylbenzoquinone (PBQ). The experiment is classed as in vivo. The conditions noted are these: Mus musculus, po, 0.5 h; p.o.; *test compound administered 30 min. prior to PBQ; read-out: (B) Writhing PBQ ED50 p.o.
Source text: as §1
(ii) Phenylbenzoquinone (PBQ). This test was carried out in a parallel manner to that employing acetic acid, except that the period over which the writhing/stretching movements were counted began 10 mins. after administration of the PBQ irritant, the latter being given at a dosage of 2.5 mg/kg and in a dose volume of 10 ml/kg. The ED50 figures for the test compounds were calculated, using linear regression analysis, as the dose in the presence of which only half the number of writhes/stretches was induced compared with the controls.
For orientation: Writhing tests count abdominal constrictions after an irritant is injected.

Turning to `COc1ccc2c(c1)c(CC(=O)O)c(C)n2C(=O)c1ccc(Cl)cc1` [Indomethacin], the “(A) Hotplate ED50” value in the experiment on Male mice (CFLP strain) was “NE @ 100”.
What is called ED50 is the midpoint of the dose-response relation. Take `CN1CC[C@]23c4c5ccc(O)c4O[C@H]2[C@@H](O)C=C[C@H]3[C@H]1C5` [Morphine]: the median effective dose (ED50) in the experiment with female CD1 mice amounted to 3.5 mg/kg.
In the case of `CC(C)=CCN1CCC2(C)c3cc(O)ccc3CC1C2C` (stereo not drawn) [Pentazocine], the “(A) Hotplate ED50” value with Male mice (CFLP strain) is “NE @ 100”.
